From PubChem BioAssay (NCI)
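Briefly, cells in 96-well plates were exposed to five compound concentrations for 48 h, and endpoints were estimated by linear interpolation. The concentration for 50% growth inhibition is given as GI50. TGI: concentration producing complete growth inhibition.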

Key:
Experiment in all cases: DTP human tumour cell line panel, 48 h
HCT-15 colon = test system: HCT-15 colon
MDA-MB-231 breast = test system: MDA-MB-231 breast
BT-549 breast = test system: BT-549 breast
OVCAR-8 ovarian = test system: OVCAR-8 ovarian
IGROV1 ovarian = test system: IGROV1 ovarian
MOLT-4 leukemia = test system: MOLT-4 leukemia
K-562 leukemia = test system: K-562 leukemia
CCRF-CEM leukemia = test system: CCRF-CEM leukemia
SR leukemia = test system: SR leukemia
NCI-H23 lung = test system: NCI-H23 lung
UACC-257 melanoma = test system: UACC-257 melanoma
786-0 renal = test system: 786-0 renal
NCI-H460 lung = test system: NCI-H460 lung
KM12 colon = test system: KM12 colon
OVCAR-4 ovarian = test system: OVCAR-4 ovarian
TK-10 renal = test system: TK-10 renal
SF-268 CNS = test system: SF-268 CNS
SK-MEL-2 melanoma = test system: SK-MEL-2 melanoma
HS 578T breast = test system: HS 578T breast
A549 NSCLC = test system: A549 NSCLC
EKVX NSCLC = test system: EKVX NSCLC
SNB-75 CNS = test system: SNB-75 CNS
U251 CNS = test system: U251 CNS
NCI-H522 lung = test system: NCI-H522 lung
OVCAR-3 ovarian = test system: OVCAR-3 ovarian
T-47D breast = test system: T-47D breast
OVCAR-5 ovarian = test system: OVCAR-5 ovarian
M14 melanoma = test system: M14 melanoma
LOX IMVI melanoma = test system: LOX IMVI melanoma
DU-145 prostate = test system: DU-145 prostate
HOP-92 NSCLC = test system: HOP-92 NSCLC
PC-3 prostate = test system: PC-3 prostate
COLO 205 colon = test system: COLO 205 colon
HCC-2998 colon = test system: HCC-2998 colon
CAKI-1 renal = test system: CAKI-1 renal
SW-620 colon = test system: SW-620 colon
A498 renal = test system: A498 renal
MALME-3M melanoma = test system: MALME-3M melanoma
SNB-19 CNS = test system: SNB-19 CNS
RPMI-8226 leukemia = test system: RPMI-8226 leukemia
SN12C renal = test system: SN12C renal
ACHN renal = test system: ACHN renal
SF-295 CNS = test system: SF-295 CNS
MCF7 breast = test system: MCF7 breast
SK-MEL-5 melanoma = test system: SK-MEL-5 melanoma
HT29 colon = test system: HT29 colon
MDA-MB-435 = test system: MDA-MB-435
RXF 393 renal = test system: RXF 393 renal
SF-539 CNS = test system: SF-539 CNS
UO-31 renal = test system: UO-31 renal
HCT-116 colon = test system: HCT-116 colon
NCI-H226 lung = test system: NCI-H226 lung
HOP-62 NSCLC = test system: HOP-62 NSCLC
UACC-62 melanoma = test system: UACC-62 melanoma
SK-OV-3 ovarian = test system: SK-OV-3 ovarian
NCI/ADR-RES ovarian = test system: NCI/ADR-RES ovarian
SK-MEL-28 melanoma = test system: SK-MEL-28 melanoma

Cc1ccc(C(=O)Nc2ccccc2C(=O)N/N=C(\c2ccccc2)c2ccccn2)cc1
GI50 (HCT-15 colon): 60 nM
TGI (HCT-15 colon): > 100000 nM
GI50 (MDA-MB-231 breast): 517 nM
TGI (MDA-MB-231 breast): > 100000 nM
GI50 (BT-549 breast): 517 nM
TGI (BT-549 breast): > 100000 nM
GI50 (OVCAR-8 ovarian): 377 nM
TGI (OVCAR-8 ovarian): > 100000 nM
GI50 (IGROV1 ovarian): 177 nM
TGI (IGROV1 ovarian): > 100000 nM
GI50 (MOLT-4 leukemia): 374 nM
TGI (MOLT-4 leukemia): > 100000 nM
GI50 (K-562 leukemia): 855 nM
TGI (K-562 leukemia): > 100000 nM
GI50 (CCRF-CEM leukemia): 167 nM
TGI (CCRF-CEM leukemia): > 100000 nM
GI50 (SR leukemia): 208 nM
TGI (SR leukemia): > 100000 nM
GI50 (NCI-H23 lung): 723 nM
TGI (NCI-H23 lung): > 100000 nM
GI50 (UACC-257 melanoma): 999 nM
TGI (UACC-257 melanoma): > 100000 nM
GI50 (786-0 renal): 362 nM
TGI (786-0 renal): > 100000 nM
GI50 (NCI-H460 lung): 211 nM
TGI (NCI-H460 lung): > 100000 nM
GI50 (KM12 colon): 388 nM
TGI (KM12 colon): > 100000 nM
GI50 (OVCAR-4 ovarian): 157 nM
TGI (OVCAR-4 ovarian): > 100000 nM
GI50 (TK-10 renal): 3580 nM
TGI (TK-10 renal): > 100000 nM
GI50 (SF-268 CNS): 274 nM
TGI (SF-268 CNS): > 100000 nM
TGI (SK-MEL-2 melanoma): > 100000 nM
GI50 (HS 578T breast): 9130 nM
TGI (HS 578T breast): > 100000 nM
GI50 (A549 NSCLC): 703 nM
TGI (A549 NSCLC): > 100000 nM
GI50 (EKVX NSCLC): 207 nM
TGI (EKVX NSCLC): > 100000 nM
GI50 (SNB-75 CNS): 1180 nM
TGI (SNB-75 CNS): > 39200 nM
GI50 (U251 CNS): 485 nM
TGI (U251 CNS): > 100000 nM
GI50 (NCI-H522 lung): 582 nM
TGI (NCI-H522 lung): > 100000 nM
GI50 (OVCAR-3 ovarian): 211 nM
TGI (OVCAR-3 ovarian): > 100000 nM
GI50 (T-47D breast): 493 nM
TGI (T-47D breast): > 100000 nM
GI50 (OVCAR-5 ovarian): 607 nM
TGI (OVCAR-5 ovarian): > 100000 nM
GI50 (M14 melanoma): 272 nM
TGI (M14 melanoma): 3260 nM
GI50 (LOX IMVI melanoma): 302 nM
TGI (LOX IMVI melanoma): > 100000 nM
GI50 (DU-145 prostate): 434 nM
TGI (DU-145 prostate): > 100000 nM
GI50 (HOP-92 NSCLC): 6270 nM
TGI (HOP-92 NSCLC): > 100000 nM
GI50 (PC-3 prostate): 1100 nM
TGI (PC-3 prostate): > 100000 nM
GI50 (COLO 205 colon): 334 nM
TGI (COLO 205 colon): > 100000 nM
GI50 (HCC-2998 colon): 381 nM
TGI (HCC-2998 colon): > 100000 nM
GI50 (CAKI-1 renal): 324 nM
TGI (CAKI-1 renal): > 100000 nM
GI50 (SW-620 colon): 603 nM
TGI (SW-620 colon): > 100000 nM
GI50 (A498 renal): 630 nM
GI50 (MALME-3M melanoma): 752 nM
TGI (MALME-3M melanoma): > 100000 nM
GI50 (SNB-19 CNS): 554 nM
TGI (SNB-19 CNS): > 100000 nM
GI50 (RPMI-8226 leukemia): 1130 nM
TGI (RPMI-8226 leukemia): > 100000 nM
GI50 (SN12C renal): 760 nM
TGI (SN12C renal): > 100000 nM
GI50 (ACHN renal): 166 nM
TGI (ACHN renal): > 25900 nM
GI50 (SF-295 CNS): 377 nM
TGI (SF-295 CNS): > 100000 nM
GI50 (MCF7 breast): 359 nM
TGI (MCF7 breast): > 100000 nM
GI50 (SK-MEL-5 melanoma): 271 nM
TGI (SK-MEL-5 melanoma): 1150 nM
GI50 (HT29 colon): 250 nM
TGI (HT29 colon): > 100000 nM
GI50 (MDA-MB-435): 534 nM
TGI (MDA-MB-435): > 100000 nM
GI50 (RXF 393 renal): 1530 nM
TGI (RXF 393 renal): > 100000 nM
GI50 (SF-539 CNS): 309 nM
TGI (SF-539 CNS): 6950 nM
GI50 (UO-31 renal): 107 nM
TGI (UO-31 renal): 2660 nM
GI50 (HCT-116 colon): 348 nM
TGI (HCT-116 colon): > 100000 nM
GI50 (NCI-H226 lung): 895 nM
TGI (NCI-H226 lung): > 100000 nM
GI50 (HOP-62 NSCLC): 270 nM
TGI (HOP-62 NSCLC): > 100000 nM
GI50 (UACC-62 melanoma): 360 nM
TGI (UACC-62 melanoma): 6700 nM
GI50 (SK-OV-3 ovarian): 478 nM
TGI (SK-OV-3 ovarian): > 100000 nM
GI50 (NCI/ADR-RES ovarian): 200 nM
TGI (NCI/ADR-RES ovarian): > 100000 nM
GI50 (SK-MEL-28 melanoma): 597 nM
TGI (SK-MEL-28 melanoma): > 100000 nM
